According to patent US8420776B2, “Ube2G2 binding domain in the ubiquitin ligase gp78 and methods of use thereof” (The United States of America, as Represented by the …, priority 2004, dated 2013):

Columns and labels:
Assay type in all cases: cell-based
[1] = target: T1, endogenous Ube2G2 (Homo sapiens, UniProt P60604); test: Co-immunoprecipitation of endogenous Ube2G2 with GFP fusions in HEK 293T cells; conditions: anti-GFP IP
T1 construct: endogenous in cells; host or cells: HEK 293T
T1 sequence (P60604 1-165): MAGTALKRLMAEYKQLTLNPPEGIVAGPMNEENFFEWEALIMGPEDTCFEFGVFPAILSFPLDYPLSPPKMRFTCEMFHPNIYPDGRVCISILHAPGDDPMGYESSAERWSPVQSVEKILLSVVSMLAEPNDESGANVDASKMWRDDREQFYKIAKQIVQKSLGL
Procedure: (§1) Transfections of HT1080, NIH 3T3 and HEK 293T cells were carried out ˜24 hr after plating using Polyfect (Qiagen, Valencia, Calif.) and cells harvested after ˜48 hr. J558 cells were transfected by electroporation using Bio-rad GENE pulser II at settings of 250 v, 950uF. Vector without insert was used to equalize total plasmid. In most experiments 0.15 μg of pEGFP-C1 served as an internal control. For experiments not involving immunoprecipitation, 6×10^5 cells were plated in 6 well plates and cell lysis was with Mammalian Protein Extraction Reagent (Pierce). […] Supernatants were analyzed after a 10,000×g centrifugation using standard techniques for immunoprecipitation, SDS-PAGE, immunoblotting and ECL. […]
(§2) FIG. 6 depicts the specific binding of gp78 residues 574-611 (of SEQ ID NO:2) to endogenous Ube2G2 in HEK 293T cells. Cells were transfected with plasmids encoding GFP fusions of the indicated regions of gp78, and co-immunoprecipitation was evaluated. […]
(§3) To determine the specificity of E2 binding in cells, GFP fusions encompassing the E2 binding region were expressed in cells, and co-immunoprecipitation of endogenous E2 was tested using antibodies raised specifically against Ube2g1, Ube2G2 and UbcH5B (FIG. 19B). […] In contrast, and consistent with the in vitro binding data in FIG. 18, no association with endogenous UbcH5B or Ube2g1 was detected (FIG. 19B third and fourth panels, left). […]

[2] = target: T2, endogenous Ube2g1 (Homo sapiens, UniProt P62253); test: Co-immunoprecipitation of endogenous Ube2G1 with GFP fusions in HEK 293T cells; conditions: anti-GFP IP
T2 construct: endogenous in cells; host or cells: HEK 293T
T2 sequence (P62253 1-170): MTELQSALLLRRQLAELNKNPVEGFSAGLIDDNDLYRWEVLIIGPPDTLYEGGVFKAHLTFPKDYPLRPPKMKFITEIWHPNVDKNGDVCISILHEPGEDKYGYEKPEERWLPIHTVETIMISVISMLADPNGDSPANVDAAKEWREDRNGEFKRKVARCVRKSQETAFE
Procedure: as §1, §2, §3

[3] = target: T3, endogenous UbcH5B (Homo sapiens, UniProt P62837); test: Co-immunoprecipitation of endogenous UbcH5B with GFP fusions in HEK 293T cells; conditions: anti-GFP IP
T3 construct: endogenous in cells; host or cells: HEK 293T
Procedure: as §1, §2, §3

[4] = tested on: ERAD substrate CD3-δ; test: CD3-δ level in co-transfected cells by immunoblotting; conditions: co-transfection with CD3-δ, immunoblot
Procedure: (§4) Transfections of HT1080, NIH 3T3 and HEK 293T cells were carried out ˜24 hr after plating using Polyfect (Qiagen, Valencia, Calif.) and cells harvested after ˜48 hr. J558 cells were transfected by electroporation using Bio-rad GENE pulser II at settings of 250 v, 950uF. Vector without insert was used to equalize total plasmid. In most experiments 0.15 μg of pEGFP-C1 served as an internal control. For experiments not involving immunoprecipitation, 6×10^5 cells were plated in 6 well plates and cell lysis was with Mammalian Protein Extraction Reagent (Pierce). For immunoprecipitation, 2.4×10^6 cells were seeded in 100 mm dishes and cells were lysed in RIPA buffer (1×PBS, 1% Nonidet P40. 0.5% sodium deoxycholate, 0.1% SDS). Lysis buffers were supplemented with Protease Inhibitor Cocktail (Sigma) and 10 mM iodoacetamide. Supernatants were analyzed after a 10,000×g centrifugation using standard techniques for immunoprecipitation, SDS-PAGE, immunoblotting and ECL. Treatment of cells with MG132 (Sigma) was at 50 μM for eight hr. Cycloheximnide was used at 50 μg/ml. All cells were collected at the end of the six hr chase.
FIG. 7 depicts the stabilization of CD3-δ protein in cells transfected with the G2BD, but not with the G2BD with amino acids 579-584 (of SEQ ID NO:2) mutated. HEK 293T cells were transfected with the ERAD substrate CD3-δ along with the indicated GFP fusions of gp78. The left and right sides are two separate experiments.
(§5) To test this, GFP fusions of either a minimal E2 binding domain (GFP-574-611) or a more extended region that includes the C-terminus of gp78 (GFP-574-643) were evaluated (FIG. 21A). […] To assess this further, the C-terminal region of gp78 was fused to the eight amino acid Flag tag. […] Mdm2 is a RING finger E3 for both itself and p53 that is neither an ERAD substrate nor known to utilize Ube2G2 as an E2. […] To establish with certainty that the effect observed with expression of the Ube2G2 binding site is a consequence of binding endogenous E2, and not due to other unanticipated effects, cells were co-transfected with increasing amounts of Ube2G2 (FIG. 21C, lanes 3 and 4). […] These findings clearly establish that the isolated E2 binding site has the potential to markedly alter ERAD of CD3-δ. To ensure the effect observed was not peculiar to one substrate, TCR-α was evaluated (FIG. 21D).

[5] = tested on: ERAD substrate TCR-α; test: TCR-α level in co-transfected cells; conditions: co-transfection with TCR-α
Procedure: as §4
FIG. 9 depicts the stabilization of endogenous TCRα by the G2BD. TCR-α is a subunit of the T cell antigent receptor and an ERAD substrate. TCR-α was stabilized by the region implicated in Ube2G2 binding.
as §5

[6] = tested on: NIH 3T3 cells; test: UPR markers in NIH 3T3 cells expressing GFP fusions
Procedure: as §4
(§6) Similarly, an increase in phospho-eIF2α, which attenuates translation and is activated by PERK, was also observed. […] An effective UPR ultimately requires an increase in ERAD. However, the ectopic expression of the Ube2G2 binding site should create a block specifically at this point.

[7] = tested on: J558 cells; test: UPR markers in J558 myeloma cells expressing GFP fusions
Procedure: as §4
(§7) 24 hr after transfection with constructs encoding GFP or GFP fusion proteins, cells were stained with annexin V-PE (BD Pharmingen) and analyzed on a Beckman coulter XL. Data for J558 was average of three experiments, NIH 3T3 was from 2 experiments. Gates were set to analyze cells expressing GFP using 525 band-pass filter and evaluated for annexin V-PE staining using a 575 band-pass filter. To isolate cells expressing GFP, J558 cells were harvested 24 hr after transfection and sorted on a BD FACS Aria. Transfection efficiencies were 7-10%. 2×10^4 cells expressing GFP fusions were isolated.
Cells with active secretory pathways, such as myeloma, might be predicted to be particularly susceptible to ER stress. […] As with NIH 3T3 cells, expression of the Ube2G2 binding site in the well characterized myeloma cell line J558 led to increases in BiP and phospho-eIF2α.

[8] = tested on: J558 cells; test: Annexin V staining by flow cytometry in J558 cells; conditions: 24 hours after transfection, vs GFP574-611E2-m2 or GFP alone
Excerpt: as §7
(§8) This was verified by a rapid loss of GFP immunoreactivity from cells expressing GFP574-611 (FIG. 7C). To confirm that this is a consequence of apoptosis, cells were evaluated by flow cytometry 24 hours after transfection. This early point was chosen, as by 48 hours few cells expressing the GFP574-611 could be discerned microscopically. […] Thus, the isolated Ube2G2 binding site of gp78 initiates an UPR in cells and a program leading to apoptotic cell death preferentially in myeloma cells.

[9] = tested on: NIH 3T3 cells; test: Annexin V staining by flow cytometry in NIH 3T3 cells; conditions: 24 hours after transfection
Excerpt: as §7, §8

[10] = tested on: HEK 293T cells or NIH 3T3 cells; test: Cell death by microscopy in HEK 293T or NIH 3T3 cells
Excerpt: as §6

[11] = tested on: human multiple myeloma cells; test: Ube2G2 binding site expression in human myeloma
[12] = tested on: HeLA, U20S and HT1080; test: Cell death in epithelial cancer and sarcoma cell lines
Excerpt: as §6

[13] = tested on: J558 cells; test: Loss of J558 cells expressing GFP fusions by microscopy; conditions: relative to GFP574-611E2-m2
Procedure: as §8

T3 sequence (P62837 whole entry, the tested form may be a part): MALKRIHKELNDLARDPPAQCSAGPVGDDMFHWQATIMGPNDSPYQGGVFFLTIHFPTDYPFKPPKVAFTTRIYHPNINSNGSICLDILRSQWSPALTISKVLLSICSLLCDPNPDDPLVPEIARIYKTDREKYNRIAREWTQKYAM

Q: How did the “co-immunoprecipitation of endogenous Ube2G2” value [1] turn out when “GFP-574-611: N-terminal GFP fusion of gp78 residues 574-611, a minimal E2 binding domain (SADERQRMLVQRKDELLQQARKRFLNKSSEDDAASESF; listed as Homo sapiens)” was run?
A: sufficient to co-immunoprecipitate endogenous Ube2G2

Q: And the “co-immunoprecipitation of endogenous Ube2G1” value [2]?
A: not co-immunoprecipitated

Q: And the “co-immunoprecipitation of endogenous UbcH5B” value [3]?
A: not co-immunoprecipitated

Q: And the “effect on CD3-δ level (stabilization)” value [4]?
A: dramatically stabilized CD3-δ

Q: And the “effect on CD3-δ level (stabilization)” value ([4]; listed as 574-611)?
A: sufficient to stabilize CD3-δ

Q: And the “effect on TCR-α level (stabilization)” value ([5]; listed as G2BD)?
A: stabilized

Q: What about the “effect on TCR-α level (stabilization)” value ([5]; listed as Ube2G2 binding site) of the same substance?
A: markedly stabilized TCR-α

Q: What about the CHOP accumulation [6] of the same substance?
A: no accumulation

Q: What about the “ER chaperone BiP level” value [6] of the same substance?
A: increase

Q: And the phospho-eIF2α level [6]?
A: increase

Q: What about the “total eIF2α level” value [6] of the same substance?
A: not significantly altered

Q: And the “loss of GFP fusion relative to mutant form” value ([6]; GFP immunoblot)?
A: nor was there any discernable loss

Q: And the BiP level [7]?
A: increases

Q: What about the CHOP level [7] of the same substance?
A: marked increase

Q: And the “GFP immunoreactivity over time” value [7]?
A: rapid loss

Q: What about the phospho-eIF2α level [7] of the same substance?
A: increases

Q: And the “annexin V staining (apoptosis marker)” value [8]?
A: dramatic increase

Q: What about the “annexin V staining (apoptosis marker)” value [9] of the same substance?
A: No significant increase

Q: And the “cell death by microscopy” value [10]?
A: no microscopic evidence of increased cell death

Q: And the “apoptosis in human myelomas” value [11]?
A: leads to apoptosis

Q: And the cell death [12]?
A: lack of increased cell death

Q: And the “loss of cells expressing the GFP fusion, by microscopy” value [13]?
A: differential loss
